Key:
[1] = tested on: LL/2 (Lewis lung carcinoma) tumors; assay: In vivo efficacy in mice carrying LL/2 (Lewis lung carcinoma) tumors; set-up: species or system B6D2F1 mice
Experimental: (§1) For Examples 1-3, the pharmaceutical formulations were prepared just prior to use. Various amounts of brefeldin A (BFA) (mg of drug/kg animal's body weight) were weighed out, and solvent (varying amounts of ethanol in saline) was then added. The mixtures were either vortexed (mechanical mixing) or sonicated until the drug was either completely dissolved or only a very small amount appeared to settle in the bottom the test tube.
(§2) In vivo efficacy was determined using either inbred C3H or hybrid B6D2F1 mice carrying RIF-1 (radiation induced firbrosarcoma-1) or LL/2 (Lewis lung carcinoma) tumors, respectively. The tumor cells were kept in a CO2/O2 atmosphere at 37° C., and grown in monolayers. When confluent, cells were rinsed with ice-cold phosphate buffered ethylenediamine tetraacetic acid (EDTA), followed by trypsin/EDTA treatment for about 3 minutes at 37° C. The cells were then dispersed by the addition of medium with serum and spun down using a centrifuge, then washed once in phosphate-buffered saline (PBS) prior to suspending at the desired density (cells/ml) in sterile Hank's balanced salt solution (HBSS). The cells were then inoculated subcutaneously (s.c.) with either a 100 μl or 50 μl injection on one flank of each mouse to provide the desired number of cells (1.25×10^5, 2.5×10^5 or 5.0×10^5) per site.
(§3) Five to ten days after inoculation with the tumor cells, treatment was initiated with either solvent alone for control groups, or solvent with BFA for the treated group. The mice were treated daily for one to two weeks either intraperitoneally (i.p.) or intravenously (i.v.). The mice (weighing approximately 25 g each) were observed daily for the absence or presence of a tumor, as well as for signs of gross toxicity such as weight loss, hair loss, lethargy, and/or dehydration. The body weight for each mouse was recorded daily until the end of treatment. At the termination of treatment, mice were euthanized, and their tumors removed and stored in formalin for sectioning and staining in future studies. In some experiments, organs such as the kidney, spleen, liver, and brain were also stored in formalin (10%) for future histological analysis of organ toxicity.
The toxicity and efficacy of brefeldin A (BFA, 11 mg/kg) in 10% ethanol (in saline) were determined in B6D2F1 mice. On Day 0, mice were inoculated on one flank with 1.25×10^5 LL/2 tumor cells in 50 μl liquid carrier. […]
All mice were observed daily for signs of gross toxicity and the absence or presence of tumor growth. […] Efficacy was determined by delay in the appearance of the tumor in the experimental group relative to control.
(§4) The efficacy of brefeldin A (BFA, 12 mg/kg) in 10% ethanol (in saline) was evaluated in B6D2F1 mice with a higher tumor cell burden than used in Example 1. […]

[2] = tested on: Human umbilical vein endothelial cells (HUVECs); assay: In vitro capillary tube formation assay on Matrigel; type: cell-based; conditions: tested concentrations of 4.0 nM and above (4.0, 40, 100, 400 nM); 18 hours
Experimental: The in vitro influence of brefeldin A on angiogenesis was evaluated. Human umbilical vein endothelial cells (HUVECs) were cultured in medium EBM-2 complete™ (BioWhittaker, Inc., Baltimore, Md.). Matrigel® (200 μl, synthetic basement membrane substrate) was pipetted gently to avoid air bubbles on the surface of a 48-well plate. Following application of Matrigel® substrate, the plate was placed in an incubator at 37° C. for 30 minutes to promote gelling. HUVECs were harvested from tissue culture flasks, counted, and diluted to 15×10^4/ml. The cell suspension (200 μl) was added to the Matrigel® substrate, such that the final concentration was 30,000 cells/well. Two wells/concentration were used. For evaluation of antiangiogenic activity, a 0.4 mM BFA stock (in dimethyl sulfoxide, DMSO) was diluted to a final concentration of 400, 100, 40, 4.0, and 0.4 nM before adding cells. The final DMSO concentration was 0.02%. […] To evaluate capillary tube formation, plates were viewed under phase contrast low magnification (10×), a photo reticule was used to define the area, and the capillary tube network was counted within the designated area. Only complete tubes that were inside the rectangle were counted.
Data were expressed as percent of complete capillary tube formation relative to untreated control cultures incubated under the same conditions (control=100%). […]

[3] = tested on: rat aortic ring explant cultures; assay: Ex vivo rat aortic ring explant assay (microvessel outgrowth); type: cell-based, Sprague-Dawley rats; conditions: tested concentrations of 200 nM and above (200, 400, 1000 nM); Day 7; average of three trials
Experimental: The ex vivo influence of brefeldin A on angiogenesis was evaluated as follows. Male Sprague-Dawley rats weighing approximately 250 g were anesthetized and their thoracic aortas removed carefully to avoid damaging the vessel wall. Aortas were rinsed in serum-free endothelial cell basal medium, the surrounding adventitia removed and cleaned, and the vessels cut into two millimeter (mm) concentric rings. Each ring was embedded in freshly prepared rattail collagen. Following gelation for 30 minutes at 37° C., collagen gel cultures were transferred to 16 mm wells (4 well plate), each containing 0.5 ml of serum free (MCBD 131) medium. Brefeldin A was dissolved in DMSO and mixed with serum free medium at final concentrations of 40 nM 100 nM, 200 nM, 400 nM, and 1000 nM immediately prior to the addition of media to collagen-embedded rat aortic ring explant cultures. The final concentration of DMSO in treated and control cultures was 0.02%. Explant cultures were incubated at 35.5° C. in a 5% CO2 humidified atmosphere, and the media replaced every two days over the course of the 8-10 day study. Visual counts of microvessel outgrowths from replicate explant cultures were performed using bright field microscopy during microvessel peak growth (Day 7).
Data were expressed as percent inhibition of microvessel growth relative to vehicle-treated control cultures (FIG. 8). […]

[4] = Gross toxicity in RIF-1 tumor-bearing mice; type: in vivo, C3H mice; conditions: Example 3; 8 mg/kg i.v. daily for eight days
Experimental: as §3
On Day 0, C3H mice were inoculated on one flank (s.c.) with 2.5×10^5 RIF-1 tumor cells in 50 μl liquid carrier. Ten days following tumor cell inoculation, mice were randomized into control and treated groups. […]
(§5) All mice were observed daily for signs of gross toxicity and the absence or presence of tumor growth. […] Efficacy was determined by tumor growth delay as evidenced by the size and appearance of the tumor in the treated group relative to control.

[5] = Gross toxicity and organ histology in LL/2 tumor-bearing mice; type: in vivo, B6D2F1 mice
Experimental: as §3
The toxicity and efficacy of brefeldin A (BFA, 11 mg/kg) in 10% ethanol (in saline) were determined in B6D2F1 mice. On Day 0, mice were inoculated on one flank with 1.25×10^5 LL/2 tumor cells in 50 μl liquid carrier. Five days after inoculation with the tumor cells, mice were randomized into control and treated groups. The mice received daily treatments (0.2 ml, i.p.) for two weeks with either 10% ethanol in phosphate-buffered saline (control) or 10% ethanol in phosphate-buffered saline with BFA (treated). Each mouse in the treated group received a total dose of 0.28 mg of BFA daily.
All mice were observed daily for signs of gross toxicity and the absence or presence of tumor growth. In addition, all mice were weighed daily. […] Efficacy was determined by delay in the appearance of the tumor in the experimental group relative to control.
as §4
All mice were observed daily for signs of gross toxicity and the absence or presence of tumor growth. […] Efficacy was determined by delay in the appearance of tumor in the experimental group relative to control.

RIF-1 tumors = assay: In vivo efficacy in mice carrying RIF-1 (radiation induced fibrosarcoma-1) tumors; set-up: species or system C3H mice; conditions: Example 3
Experimental: as §1, §2
Five to ten days after inoculation with the tumor cells, treatment was initiated with either solvent alone for control groups, or solvent with BFA for the treated group. The mice were treated daily for one to two weeks either intraperitoneally (i.p.) or intravenously (i.v.). […] The body weight for each mouse was recorded daily until the end of treatment. […]
The efficacy of a lower dose of BFA (8 mg/kg), in a lower concentration of ethanol (1.0%) in phosphate-buffered saline, relative to Examples 1 and 2 was determined. […]
as §5

[6] = Example 2, 12 mg/kg i.p. daily for two weeks, 5.0×10^5 LL/2 cells

SMILES: C[C@H]1CCC/C=C/[C@@H]2C[C@H](O)C[C@H]2[C@H](O)/C=C/C(=O)O1 [brefeldin A]
- presence of tumor (gross observation, FIG. 1) ([1]; Example 1, 11 mg/kg i.p. daily for two weeks in 10% ethanol, 1.25×10^5 LL/2 cells): no evidence of tumor was observed
- tumor at inoculation site (skin sample histology, FIG. 2A) ([1]; Example 1, 11 mg/kg i.p. daily for two weeks, after final treatment): No evidence of tumor at the injection site
- tumor growth delay (FIG. 3) [1, 6]: significant tumor growth delay
- tumor size reduction relative to control group [1, 6]: at least 25%
- inhibition of angiogenesis (complete capillary tube formation relative to untreated control) [2]: more than 50%
- inhibition of angiogenesis (microvessel growth relative to vehicle-treated control) [3]: more than 50%
- gross toxicity (weight loss, hair loss, lethargy, dehydration) [4]: no gross toxicity was observed
- gross toxicities (weight loss, hair loss, lethargy, dehydration) ([5]; Example 1, 11 mg/kg i.p. daily for two weeks): not observed
- toxicity-related effects in brain, kidney, liver, spleen ([5]; Example 1, 11 mg/kg i.p. daily for two weeks, H&E histology): no toxicity-related effects
- gross toxicity (weight loss (FIG. 4), hair loss, lethargy) ([5]; Example 2, 12 mg/kg i.p. daily for two weeks): no gross toxicity
- vessel density in tumor sections (qualitative) (RIF-1 tumors; 8 mg/kg i.v. daily for eight days): less vessel density
- tumor size relative to control (FIG. 6) (RIF-1 tumors; 8 mg/kg i.v. daily for eight days in 1.0% ethanol, 2.5×10^5 RIF-1 cells): significantly smaller
- tumor invasiveness on harvesting (RIF-1 tumors; 8 mg/kg i.v. daily for eight days, control tumors penetrated muscle): remained relatively localized and relatively easy to remove

Source: patent publication US6696483B2, “Inhibitors of angiogenesis and tumor growth for local and systemic administration” (OncoPharmaceutical, Inc., priority 2000, dated 2004)
